Laboratory results taken from the Biogen ADME set (Fang et al. 2023).
Converted amounts (≈) assume the structure as drawn.

Conditions: for aqueous solubility: pH 6.8

Row | Structure (SMILES) | MDR1-MDCK efflux ratio | intrinsic clearance, human liver microsomes [mL/min/kg] | intrinsic clearance, rat liver microsomes [mL/min/kg] | aqueous solubility [µg/mL]
1 | CN(CC(=O)N(C)C)Cc1cc(C#N)ccc1F | 0.713 | ≤ 4.74 | 38.1 | 35.4 (≈ 142 µM)
2 | Cc1cccc(C(=O)NCC#Cc2ccccc2)n1 | 0.421 | 38.2 | 557 | 29.7 (≈ 119 µM)
3 | COc1cc2c(NC3CCN(C(C)C)CC3)nc(N3CCC(F)(F)CC3)nc2cc1OCCCN1CCCC1 | – | ≤ 4.74 | 26.3 | 64.8 (≈ 119 µM)
4 | Cc1ccc(CNC(=O)c2cccs2)cn1 | 0.842 | ≤ 4.74 | ≤ 10.7 | 52.3 (≈ 225 µM)
5 | Cn1ncnc1NCc1cc(F)cc(F)c1 | 0.757 | ≤ 4.74 | ≤ 10.7 | –
6 | N#Cc1ccc(NS(=O)(=O)c2c[nH]c3nc(Cl)ccc23)c(F)c1 | 6.41 | ≤ 4.74 | – | 13.1 (≈ 37.3 µM)
7 | CC1(C)[C@@H]2C[C@H]1[C@@]1(O)[C@@H](C2)Oc2c(ccc(O)c2C(=O)NCCNc2ccccn2)[C@@H]1O | 24.5 | 322 | 2010 | –
8 | O[C@@H]1C[C@@H](c2nc(-c3cccnc3)no2)N(CCCc2ccccc2)C1 | 1.19 | 108 | 1900 | 45.6 (≈ 130 µM)
9 | CCc1cc(-c2ccc(OC)c3nc(C)ccc23)nc(N2CCOCC2)n1 | 1.12 | 6.38 | 105 | –
10 | Cc1noc(-c2ccc(NC(=O)Cc3ccccc3)cc2)n1 | 0.573 | 7.82 | 57.1 | 7.94 (≈ 27.1 µM)
11 | Cc1cccc2ncn(CCc3ncc[nH]3)c(=O)c12 | 6.44 | ≤ 4.74 | 2240 | –
12 | CCN(CC)Cc1cccc(/C=C/c2nc3ccc(F)cc3c(=O)n2-c2ccccc2Cl)n1 | 8.43 | 69.4 | 516 | 67.5 (≈ 146 µM)
13 | COc1ccc(-n2c(Cn3cnc(C#N)n3)nc3ccccc32)cc1 | 1.37 | 5 | 664 | 36 (≈ 109 µM)
14 | Cc1nc(NC(c2nccn2C)C2CC2)c2sccc2n1 (centres undefined) | 13.9 | 43.7 | 319 | 51.3 (≈ 171 µM)
15 | Cc1cc(CN(C)Cc2cscn2)no1 | 0.537 | ≤ 4.74 | 24.9 | 28.6 (≈ 128 µM)
16 | Clc1ccc(CSc2nc(-c3ccccc3)c[nH]2)cn1 | 0.621 | 229 | 2880 | –
17 | COc1ccc(OCc2n[nH]c(-c3ncoc3C(C)C)n2)cc1 | 0.675 | 17.8 | 514 | –
18 | Cc1noc(NCc2ccc(F)cc2C)n1 | 0.589 | ≤ 4.74 | 68.3 | –
19 | O=C(NC1CCCC1)C(=O)c1ccc2c(c1)CCC2 | 0.548 | 163 | 908 | 31.3 (≈ 122 µM)
20 | O=C(Nc1ccccc1)c1c([O-])n(-c2ccccc2)n[n+]1Cc1ccccc1 | 0.868 | – | – | 0.2 (≈ 0.54 µM)
21 | COc1ccc(-c2csc(CC(N)=O)n2)cc1 | 0.751 | – | – | 31.3 (≈ 126 µM)
22 | CCN(CC)Cc1cnc(NC(=O)c2ccccc2)s1 | – | ≤ 4.74 | 192 | –
23 | O=C(NCCc1cccc2cccnc12)C1CCCCC1 | – | 158 | 906 | 41.7 (≈ 148 µM)
24 | COc1ccc(Br)c(-c2nnc(N)o2)c1 | 0.707 | 16.4 | 59.2 | 24.8 (≈ 91.7 µM)

Continued, values first:

Row | MDR1-MDCK efflux ratio | intrinsic clearance, human liver microsomes [mL/min/kg] | intrinsic clearance, rat liver microsomes [mL/min/kg] | aqueous solubility [µg/mL] | Structure (SMILES)
25 | 0.391 | 127 | 2000 | 26.3 (≈ 88.1 µM) | Cc1ccc2oc([C@H]3CCN(Cc4cccs4)C3)nc2c1
26 | 3.34 | 19.2 | 51.7 | 8.44 (≈ 22.4 µM) | COc1ccc(CN2CCc3nc(-c4cccnc4)nc(O)c3C2)c(C)c1C
27 | 2.7 | 963 | 1910 | 8.44 (≈ 18.9 µM) | Cc1cc(-c2ccc(N)nc2)cc(C2CCN(C(=O)CCCc3ccc(F)c(C)c3)CC2)n1
28 | 0.667 | ≤ 4.74 | 49.9 | – | Cc1cccc(NCCN2C(=O)CCC2=O)n1
29 | 0.625 | – | – | – | CCOC(=O)CCN1CCC=C(Br)C1
30 | 0.63 | 16.5 | 215 | 53.3 (≈ 155 µM) | Cc1csc(N(C(=O)c2ccc(-n3cncn3)c(F)c2)C2CC2)n1
31 | 1.2 | ≤ 4.74 | 45.1 | – | CNCc1cc(NC)nc(C2CCCN2C(=O)COc2ccccc2OC)n1 (centres undefined)
32 | 2.42 | ≤ 4.74 | 33.7 | 46.4 (≈ 155 µM) | CC(C)n1ccc(C(=O)N2CCS(=O)(=O)C(C)(C)C2)n1
33 | 0.674 | 11.2 | 73.6 | 71 (≈ 225 µM) | COc1cc(CN2CCC(c3ccnc(C)n3)CC2)ccc1F
34 | – | 5.04 | 42.8 | – | CC(=O)N(CC(N)=O)c1ccc(C)cc1
35 | 61.5 | 4.83 | 74.7 | 43.4 (≈ 124 µM) | CCc1nnc2n1CCN(C(=O)c1ccccc1Oc1cccnc1)C2
36 | 1.26 | 19.9 | 83.7 | 22.4 (≈ 96.5 µM) | CCCn1ncc2[nH]c(C3CCCCC3)nc21
37 | 0.714 | 33.3 | 2550 | – | COCc1ccc(SCC(=O)NC2CCCC2)cc1
38 | 22.7 | 79.9 | 449 | 54.2 (≈ 182 µM) | Cc1nn(C)c(C)c1CCC(=O)N1CCCc2ncccc21
39 | 5.78 | ≤ 4.74 | 92.7 | 54.2 (≈ 172 µM) | O=C(CNc1ccc(C(=O)N2CCCC2)cc1)N1CCCCC1
40 | – | 353 | 770 | 1.04 (≈ 2.32 µM) | CCn1c(COC(=O)c2ccc(C)s2)nc2cc(S(=O)(=O)N3CCCCC3)ccc21
41 | 14.2 | 63 | 2210 | 48.8 (≈ 167 µM) | CCN(C(=O)c1cc(NC(C)=O)ccc1F)C1CCCC1
